The text below walks through data of patent US10512641B2, “Chloroquine induction par-4 and treatment of cancer” (University of Kentucky Research Foundation, priority 2015, dated 2019).

Each structure is given as a SMILES string.

In test [1] the test system is Par-4. Put plainly: Par-4 secretion in wild type or p53-null MEFs, Western blot. The note with it: CQ 25 μM, Arylquin-1, Nutlin-3a 10 μM, 24 h. It counts as cell-based, mouse.
Test [2] concerns Par-4. The note with it: Burikhanov et al. (2014); cited from earlier work.
The subject of test [3] is Par-4. Briefly: ICC analysis of Par-4 localization in Rab8b coated vesicles. It counts as cell-based. As to the method: An immunocytochemical (ICC) analysis was performed to determine the localization of Par-4 in Rab8b coated vesicles.
Test [4] concerns Par-4. Briefly: BFA sensitivity of CQ-induced Par-4 in MEFs. It counts as cell-based, mouse. Conditions: MEFs pre-treated with BFA 10 μg/ml 30 minutes, then CQ 50 μM 5 h.
Text: (§4) The CM and lysates were examined by Western blot analysis with the indicated antibodies.
The test system of test [5] is Par-4. Briefly: Par-4 secretion in conditioned medium of MEFs, Western blot. It counts as cell-based, mouse. Conditions: wild type (p53+/+) MEFs; CQ 1-100 μM, 24 h. An excerpt:
(§1) The conditioned medium (CM), as well as the whole-cell lysates were subjected to Western blot analysis with the antibodies specific for Par-4, Collagen (Col1A1), albumin, or actin. Col1A1 served as a loading control for protein secretion, as it is generally unchanged in response to the treatments. The samples were also subjected to SDS/PAGE and Coomassie blue staining to determine albumin levels in serum from the CM as another loading control.
In general terms: A western blot detects proteins with antibodies after separation by electrophoresis.

For test [6], the system named is Par-4. Briefly: Par-4 secretion in conditioned medium of normal human cells, Western blot. Conditions: normal human PrSC, PrEC, HEL, HBEC; CQ 1-100 μM, 24 h. It counts as cell-based.
Text: as §1

Test [7] relates to Par-4. Put plainly: Par-4 secretion in conditioned medium of prostate and lung cancer cell lines, Western blot. It counts as cell-based, human. The note with it: prostate cancer cells LNCaP, C4-2B, DU145, PC-3; CQ 1-100 μM, 24 h.
Text: as §1

In test [8] the test system is cancer cells. Briefly: Apoptosis (ICC for active caspase-3) of cells exposed to CQ-treated MEFs or their CM. It counts as cell-based, human. As to the method: After 24 h, the cells were subjected to immunocytochemistry (ICC) for active caspase-3 and apoptotic cells were scored under a fluorescent microscope.
After 24 h, the cells were scored for apoptosis.
A total of three independent experiments were performed; and approximately 500 cells were scored in each experiment for apoptosis under a fluorescent microscope.

For a further test, the system named is LLC1 cells. Put plainly: Apoptosis of LLC1 cells by CM from CQ-treated MEFs. It counts as cell-based, mouse. Conditions: CQ 20 μM, 24 h; not with Par-4-/- MEFs.
The subject of a further test is H460 or LLC1 cells. Put plainly: Subcutaneous H460 or LLC1 tumor xenografts in nude mice. The note with it: LLC1- or H460-derived flank tumors, CQ 25 mg/kg IP once daily. It counts as in vivo, mouse.
In another test the test system is UACA. Put plainly: UACA and NF-κB-regulated gene expression, Western blot. It counts as cell-based. The note with it: for expression of UACA: 24 h.
Test [9] has as its system Par-4. Briefly: Par-4 mRNA by qRT-PCR in MEFs. Conditions: CQ 25 μM, 24 h, normalized to GAPDH. It counts as cell-based, mouse. An excerpt: The data were normalized relative to a GAPDH control. (see FIG. 8C).
(In general: Quantitative PCR measures a nucleic acid by following its amplification.)

Test [10] has as its system Par-4. Briefly: Par-4 secretion in Rab8b-null and Rab8b reconstituted MEFs. It counts as cell-based, mouse. As to the method: (§2) Testing was performed to determine whether the expression of Rab genes containing putative p53 binding sites in their promoter region were essential for Par-4 secretion.
For a further test, the system named is Rab8b. Put plainly: Rab8b and Rab8a expression (protein, real-time PCR). It counts as cell-based. As to the method: as §2
The guardian of the genome, p53 binds to a consensus motif 5′-PuPuPuC4(A/T)(A/T)G7PyPyPy

Test [11] deals with p53.
For test [12], the system named is p53. The note with it: MEFs, CQ 25 μM, 24 h.
Another test concerns A549 lung cancer cells. The note with it: A549 cells, 0, 2, 4 Gy, CQ 10 μM or 20 μM.
In test [13] the test system is Mel 1617 and Mel 1617BR melanoma cancer cells. The note with it: CQ 1 μM or 5 μM, 0 and 4 Gy.
The test system of test [14] is Par-4. Put plainly: Par-4 in serum of renal cell carcinoma patients given HCQ, Western blot. It counts as in vivo, human. As to the method:
Serum samples were collected from renal cell carcinoma patients who were given safe oral doses (400 mg daily for 2-weeks) of HCQ pre-operatively at the University of Pittsburgh, as part of a clinical trial in 2010-2011. Pre-HCQ treatment and post-HCQ treatment serum samples were collected and frozen. In 2013-2014, they were processed by Western blot analysis.
(§3) Aliquots of pre-HCQ or post-HCQ treatment serum samples from the patient were transferred to cancer cell cultures (20% final concentration). After 24 h, the cells were scored for apoptosis by ICC for active caspase-3. Fetal bovine serum (FBS, 10%) was used as an additional control. An asterisk (*) indicates statistical significance (P<0.001) by the Student's t-test. […] Importantly, apoptosis of cancer cells by post-treatment serum from the patient was neutralized by the Par-4 antibody (P) or GRP78 antibody (G), but not by control antibody (C) (FIG. 2E).

Test [15] concerns cancer cells. Put plainly: Ex vivo apoptosis of cancer cells by post-HCQ patient serum. It counts as cell-based, human. Conditions: PC-3, H460, HOP92, H1299; 20% serum, 24 h; relative to pre-HCQ serum. As to the method: as §3
Test [16] relates to Par-4. Briefly: Par-4 secretion from MEFs treated with chloroquine, curcumin, ibuprofen or combinations. It counts as cell-based, mouse. The note with it: 24 h. As to the method: To determine whether curcumin or ibuprofen enhanced the secretion of Par-4 in cells treated with chloroquine, MEFs were treated with chloroquine (25 μM), curcumin (5 μM and 10 μM) or ibuprofen (500 μM or 750 μM) or combinations of chloroquine and curcumin or ibuprofen for 24 hours at 37° C.
The conditioned medium (CM), as well as the whole-cell lysates, were subjected to Western blot analysis with the antibodies specific for Par-4, Collagen (Col1A1), albumin, or actin. Col1A1 served as a loading control for protein secretion, as it is generally unchanged in response to the treatments. The samples were also subjected to SDS/PAGE and Coomassie blue staining to determine albumin levels in serum from the CM as another loading control.

Text for UACA: as §4

Consider `CN(C)c1ccc2cc(-c3ccccc3F)c(N)nc2c1` [Arylquin-1], for which the Par-4 secretion entry in the test with Par-4 [1] was “robust induction of Par-4 secretion”. Further, the “secretion of Par-4 from normal cells in mice” value (“secretion … in mice” below) with Par-4 [2] was “can increase secretion of Par-4”.
Turning to `C[C@H]1CCC/C=C/[C@@H]2C[C@H](O)C[C@H]2[C@H](O)/C=C/C(=O)O1` [BFA], the “entry of Par-4 into Rab8b vesicles” value in the test on Par-4 [3] (CQ-treated cells plus BFA) was “prevented Par-4 from entering the Rab8b vesicles”. Besides, the “effect on CQ-induced Par-4 expression” value in the test with Par-4 [4] was “CQ-induced Par-4 expression was inhibited”.
Consider `CCN(CC)CCCC(C)Nc1ccnc2cc(Cl)ccc12` (stereo not drawn) [CQ, chloroquine diphosphate], for which the “secretion of Par-4 in the CM” value with Par-4 [5] and in the test with Par-4 [6] was “dose-dependent secretion of Par-4” throughout. Moreover, the figures for the Par-4 secretion result in the test on Par-4 [7] and with Par-4 [10] (Rab8b-null MEFs transfected with mouse Rab8b expression construct) were “neither induced Par-4 secretion” and “induced Par-4 secretion in Rab8b reconstituted cells”, respectively. For the same compound, the “apoptosis of Par-4-resistant cancer cells with CQ-treated Par-4+/+ MEFs” value in the test with cancer cells [8] (DU145, A549 cells (internal control), CQ 20 μM) was “resistant to apoptosis”. In addition, the “apoptosis of cancer cells co-cultured with CQ-treated Par-4+/+ MEFs” value in the test with cancer cells [8] (PC-3, H460, H1299, HOP92, KP7B cells, CQ 20 μM, not with Par-4-/- MEFs) is on record as “sensitive to apoptosis”. Further, the “cancer cell apoptosis by CM of CQ-treated Par-4+/+ MEFs” value in the test on cancer cells [8] (inhibited by Par-4 antibody or GRP78 antibody) was “Cancer cell apoptosis was also induced”. In the test on cancer cells [8] (normal HEL cells, CQ 20 μM), the “apoptosis of normal cells co-cultured with CQ-treated Par-4+/+ MEFs” value is given as “not normal HEL cells”. Further, the “apoptosis of LLC1 cells by CM from CQ-treated Par-4+/+ MEFs” value with LLC1 cells is on record as “induced apoptosis of LLC1 cells”. For the same compound, the “growth of subcutaneous tumor xenografts (tumor volume)” value in the test with H460 or LLC1 cells is “failed to inhibit the growth”. Further, the “expression of UACA” value is “inhibited the expression of UACA” in the test with UACA (MEF and HEL, CQ 25 μM); “not p53 null MEFs” in the test on UACA (p53 null MEFs, CQ 25 μM). Also, in the test on UACA (cancer cells), the UACA downregulation result is “failed to downregulate UACA”. Moreover, the “expression of UACA and NF-κB-regulated genes cIAP1 and XIAP” value in the test with UACA (p53-dependent, wild type vs p53-/- MEFs, CQ 25 μM) is “inhibited the expression of UACA and NF-κB-regulated genes cIAP1 and XIAP”. In addition, the “Par-4 RNA level” value in the test on Par-4 [9] is “did not induce Par-4 at the RNA level”. In the test on Par-4 [10] (Rab8b-null MEF cells (not Rab8a-null MEF cells)), the “induction of Par-4 secretion” value was “failed to show induction of Par-4 secretion”. Besides, the Rab8b induction entry in the test on Rab8b (cancer cells) is listed as “not in cancer cells”; with Rab8b (normal human cells) it was “induced Rab8b in normal human cells”. For the same compound, the Rab8b protein levels entry with Rab8b (p53 wild type cells) is reported as “enhanced Rab8b protein levels”. Moreover, the “Rab8b mRNA” value in the test with Rab8b (quantitative real-time PCR) is given as “induced Rab8b mRNA in a p53-dependent manner”. In the test on Rab8b (wild type MEFs), the Rab8a expression entry is recorded as “not Rab8a expression”. In addition, the Rab8b expression result in the test with Rab8b (wild type MEFs) was “induced Rab8b expression”. In the test on Par-4 [3] (relative to vehicle), the “co-localization of Par-4 with Rab8b containing vesicles” value is reported as “increase in the co-localization”. Further, the “p53-responsive genes p21 and PIG3” value in the test on p53 [11] (MEFs and normal mouse lung tissues) was “upregulation of p53-responsive genes p21 and PIG3”. Besides, the p53 induction result in the test with p53 [11] (cancer cells) is “neither induced p53”. In addition, the p53-dependent transcription entry with p53 [12] was “increased p53-dependent transcription”. In addition, the “inhibition of growth and proliferation, radiation plus CQ” value in the test with A549 lung cancer cells was “greater than additive effect”. Besides, in test [13], the “inhibition of growth and proliferation, CQ plus ionizing radiation” value was “greater than additive effect”.
Take `CCN(CCO)CCCC(C)Nc1ccnc2cc(Cl)ccc12` (stereo not drawn) [HCQ, hydroxychloroquine]: the “induction of Par-4 in patient serum following HCQ treatment” value with Par-4 [14] (one renal cell carcinoma patient, HCQ 400 mg daily for 2 weeks) is roughly 3 fold. For the same compound, in the test on Par-4 [14] (renal cell carcinoma patients, HCQ 400 mg daily oral for 2 weeks, post vs pre treatment), the “Par-4 levels in patient serum” value is reported as “elevated levels of Par-4 relative to pre-treatment levels”. In the test with cancer cells [15], the “ex vivo apoptosis of cancer cells with post-HCQ treatment serum” value was “underwent apoptosis”.
For `COc1ccc(C2=N[C@@H](c3ccc(Cl)cc3)[C@@H](c3ccc(Cl)cc3)N2C(=O)N2CCNC(=O)C2)c(OC(C)C)c1` [Nutlin-3a], the Par-4 secretion entry in the test on Par-4 [1] is given as “induced Par-4 secretion in a p53-dependent manner”. The “secretion … in mice” value in the test on Par-4 [2] is “can increase secretion of Par-4”.
Take `O=C(Nc1cc(Cl)cc2c1[nH]c1cnccc12)c1cccnc1` [PS-1145]: the “apoptosis of A549 cells by CM from CQ-treated MEFs” value in the test on cancer cells [8] (A549 cells pretreated with PS-1145 10 μM, 24 h) is recorded as “sensitized to apoptosis”. In the test on Par-4 [2], the “secretion … in mice” value is recorded as “can increase secretion of Par-4”.
For `COc1cc(/C=C/C(=O)CC(=O)/C=C/c2ccc(O)c(OC)c2)ccc1O` [curcumin], the Par-4 secretion result with Par-4 [16] (curcumin alone 5 μM and 10 μM) is “enhances Par-4 secretion”.
For the compound `CC(C)Cc1ccc(C(C)C(=O)O)cc1` (stereo not drawn) [ibuprofen], the “secretion of Par-4 compared with chloroquine alone” value in the test with Par-4 [16] (ibuprofen 750 μM with chloroquine 25 μM) was “significantly improves the secretion of Par-4”. The “production or secretion of Par-4” value with Par-4 [16] (ibuprofen alone 500 μM or 750 μM) was “does not enhance the production or secretion of Par-4”.
